Each structure is given as a SMILES string. Values after ≈ are worked out from the molar mass of the structure shown. Like-named read-outs stand apart in the source and are kept apart here. Where only a bound is given, the exact number is not on record here.

Series [1] concerns recRSV-luciferase. Put plainly: recRSV-luciferase assay. The class given is cell-based, respiratory syncytial virus. To be noted: luciferase readout.
The subject of series [2] is hRSV strain Long. Put plainly: hRSV CPE assay. The series is classed as cell-based, human respiratory syncytial virus.
Series [3] relates to recMeV-luciferase. Put plainly: recMeV-luciferase assay. The class given is cell-based, measles virus. To be noted: luciferase readout, reporter interference control.
The target in series [4] is calcium channel, L-type, dihydropyridine (Rattus norvegicus, UniProt P22002). As to the kind of experiment: Panlabs 214600 radioligand binding. To be noted: read-out: % Inh.
calcium channel, L-type, dihydropyridine, sequence (P22002 whole entry): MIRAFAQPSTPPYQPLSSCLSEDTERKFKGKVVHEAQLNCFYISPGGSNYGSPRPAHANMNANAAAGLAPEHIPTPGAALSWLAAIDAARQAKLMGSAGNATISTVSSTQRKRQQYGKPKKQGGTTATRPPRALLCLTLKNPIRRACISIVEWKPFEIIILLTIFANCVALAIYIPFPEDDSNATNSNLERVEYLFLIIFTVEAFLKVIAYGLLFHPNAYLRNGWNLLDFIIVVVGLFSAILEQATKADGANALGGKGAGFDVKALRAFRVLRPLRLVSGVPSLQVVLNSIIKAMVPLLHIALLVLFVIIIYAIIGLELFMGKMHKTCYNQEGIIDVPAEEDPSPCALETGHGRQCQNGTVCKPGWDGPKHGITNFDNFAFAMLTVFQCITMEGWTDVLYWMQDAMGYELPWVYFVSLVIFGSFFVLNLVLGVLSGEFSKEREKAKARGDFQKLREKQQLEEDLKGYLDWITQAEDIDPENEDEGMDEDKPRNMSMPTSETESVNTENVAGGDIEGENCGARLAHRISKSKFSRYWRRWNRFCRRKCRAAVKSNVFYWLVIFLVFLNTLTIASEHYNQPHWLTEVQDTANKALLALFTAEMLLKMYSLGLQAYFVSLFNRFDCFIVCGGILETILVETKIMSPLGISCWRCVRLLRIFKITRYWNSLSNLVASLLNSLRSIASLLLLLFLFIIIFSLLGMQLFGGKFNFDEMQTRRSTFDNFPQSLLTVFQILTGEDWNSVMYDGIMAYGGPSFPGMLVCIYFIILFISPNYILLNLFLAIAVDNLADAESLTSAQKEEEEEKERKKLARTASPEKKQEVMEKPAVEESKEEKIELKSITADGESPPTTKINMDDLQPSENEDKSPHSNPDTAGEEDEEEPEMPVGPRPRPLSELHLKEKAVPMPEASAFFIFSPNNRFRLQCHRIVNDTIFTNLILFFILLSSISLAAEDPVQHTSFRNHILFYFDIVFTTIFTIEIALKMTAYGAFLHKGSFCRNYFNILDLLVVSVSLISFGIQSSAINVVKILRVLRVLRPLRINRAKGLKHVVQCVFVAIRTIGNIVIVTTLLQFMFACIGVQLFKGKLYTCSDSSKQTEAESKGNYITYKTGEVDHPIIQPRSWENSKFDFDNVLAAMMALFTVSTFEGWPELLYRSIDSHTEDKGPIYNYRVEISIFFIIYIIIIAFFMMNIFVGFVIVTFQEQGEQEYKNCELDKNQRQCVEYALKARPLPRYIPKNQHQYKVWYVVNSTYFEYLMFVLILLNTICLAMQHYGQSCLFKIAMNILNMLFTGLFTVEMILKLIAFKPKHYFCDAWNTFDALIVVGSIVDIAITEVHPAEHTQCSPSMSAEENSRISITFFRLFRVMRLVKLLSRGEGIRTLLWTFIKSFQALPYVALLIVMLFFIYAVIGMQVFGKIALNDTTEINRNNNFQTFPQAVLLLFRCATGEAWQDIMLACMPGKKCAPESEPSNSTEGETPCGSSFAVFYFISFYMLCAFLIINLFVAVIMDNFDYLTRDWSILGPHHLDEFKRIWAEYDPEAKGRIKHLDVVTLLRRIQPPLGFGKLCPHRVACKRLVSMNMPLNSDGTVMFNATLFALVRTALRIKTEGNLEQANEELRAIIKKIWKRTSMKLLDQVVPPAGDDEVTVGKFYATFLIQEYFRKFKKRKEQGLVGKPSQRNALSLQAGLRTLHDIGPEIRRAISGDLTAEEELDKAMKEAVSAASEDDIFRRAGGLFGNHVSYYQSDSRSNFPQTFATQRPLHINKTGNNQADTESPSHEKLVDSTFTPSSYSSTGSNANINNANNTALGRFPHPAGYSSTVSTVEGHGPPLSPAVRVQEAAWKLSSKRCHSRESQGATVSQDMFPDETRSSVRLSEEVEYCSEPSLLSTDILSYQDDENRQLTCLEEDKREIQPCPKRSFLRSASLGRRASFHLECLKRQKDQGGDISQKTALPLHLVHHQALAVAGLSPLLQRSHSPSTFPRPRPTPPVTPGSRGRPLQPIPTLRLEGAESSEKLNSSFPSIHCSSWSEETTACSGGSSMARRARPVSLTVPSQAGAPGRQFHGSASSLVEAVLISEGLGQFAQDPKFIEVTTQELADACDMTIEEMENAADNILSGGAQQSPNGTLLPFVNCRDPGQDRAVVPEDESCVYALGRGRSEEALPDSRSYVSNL
Series [5] deals with calcium channel, L-type, benzothiazepine (Rattus norvegicus, UniProt P22002). As to the kind of experiment: biochemical. To be noted: read-out: % Inh.
calcium channel, L-type, benzothiazepine, sequence (P22002 whole entry): as above
Series [6] deals with RSV. Put plainly: viral titer. The series is classed as cell-based, human respiratory syncytial virus. To be noted: for log reduction at 10 µM: human respiratory syncytial virus, read-out: viral titer reduction at 10 µM.
Assay in series [7]: not given
This is another data set of the same source.

The conditions of series [8]: for Pe, PAMPA permeability: PBS, no additives.
The subject of series [9] is Fa2N-4 immortalized human hepatocytes. To be noted: read-out: hepatocyte toxicity LC50.
The mark [10] stands for this setting: human respiratory syncytial virus, HEp-2, read-out: RSV CPE potency ± standard deviation EC50, HEp-2 cells, hRSV strain Long, 10-point dose response.

Consider `COCCCNC(=O)c1ccc(Cn2c(=O)c3ccccc3n(Cc3ccc(C(C)C)cc3)c2=O)cc1` [Compound 19, 4-((1-(4-isopropylbenzyl)-2,4-dioxo-1,2-dihydroquinazolin-3(4H)-yl)methyl)-N-(3-methoxypropyl)benzamide], for which, in series [1], the “inhibition of recRSV-luciferase” value is reported as “efficiently inhibited”. Also, the EC50 (usually the midpoint of the concentration-response curve) in [2] (setting [10]) was 300 ± 30 nM; in series [2] (human respiratory syncytial virus, RSV CPE, as given in abstract) it was 300 to 500 nM. In series [3], the “activity against recMeV-luciferase” value was “inactive”. Further, the inhibition at 10 µM was 70% in series [4] and 52% in series [5]. Moreover, in series [6], the log reduction at 10 µM was 6.7.

Take `COCCCNC(=O)c1ccc(Cn2c(=O)c3ccccc3n(Cc3cccnc3)c2=O)cc1` [Compound 23, 4-((2,4-Dioxo-1-(pyridin-3-ylmethyl)-1,2-dihydroquinazolin-3(4H)-yl)methyl)-N-(3-methoxypropyl)benzamide]: the EC50 in [2] (setting [10]) is above 50000 nM. The log reduction at 10 µM in series [6] amounted to 0.9.

`COCCCCNC(=O)c1ccc(Cn2c(=O)c3ccccc3n(Cc3ccc(C)cc3)c2=O)cc1` [Compound 27, N-(4-Methoxybutyl)-4-((1-(4-methylbenzyl)-2,4-dioxo-1,2-dihydroquinazolin-3(4H)-yl)methyl)benzamide]: the EC50 in series [2] (setting [10]) turned out to be 800 ± 50 nM. The log reduction at 10 µM in series [6] was found to be 2.1.

For `Cc1ccc(Cn2c(=O)n(Cc3ccc(C(=O)NCC4COC4)cc3)c(=O)c3ccccc32)cc1` [Compound 29, 4-((1-(4-Methylbenzyl)-2,4-dioxo-1,2-dihydroquinazolin-3(4H)-yl)methyl)-N-(oxetan-3-ylmethyl)benzamide], the EC50 in series [2] (setting [10]) was found to be 700 ± 100 nM. Further, the log reduction at 10 µM in [6] was 5.1.

Consider `Cc1ccc(Cn2c(=O)n(Cc3ccc(C(=O)NCC4CCC4)cc3)c(=O)c3ccccc32)cc1` [Compound 30, N-(Cyclobutylmethyl)-4-((1-(4-methylbenzyl)-2,4-dioxo-1,2-dihydroquinazolin-3(4H)-yl)methyl)benzamide], for which the EC50 in series [2] (setting [10]) was 1000 ± 80 nM. Further, in series [6], the log reduction at 10 µM came to 1.2.

As to `Cc1ccc(Cn2c(=O)n(Cc3ccc(C(=O)NC(C)(C)C)cc3)c(=O)c3ccccc32)cc1` [Compound 36, N-(tert-Butyl)-4-((1-(4-methylbenzyl)-2,4-dioxo-1,2-dihydroquinazolin-3(4H)-yl)methyl)benzamide], the EC50 in series [2] (setting [10]) came to 700 ± 30 nM. Moreover, the log reduction at 10 µM in series [6] came out at 5.5.

On to `Cc1ccc(Cn2c(=O)n(Cc3ccc(C(=O)Nc4ccncc4)cc3)c(=O)c3ccccc32)cc1` [Compound 42, 4-((1-(4-Methylbenzyl)-2,4-dioxo-1,2-dihydroquinazolin-3(4H)-yl)methyl)-N-(pyridin-4-yl)benzamide], for which the EC50 in [2] (setting [10]) worked out at 1000 ± 40 nM. Besides, the log reduction at 10 µM in series [6] stood at 3.5.

For `O=C(NCC1COC1)c1ccc(Cn2c(=O)c3ccccc3n(Cc3ccc([N+](=O)[O-])cc3)c2=O)cc1` [Compound 43, 4-((1-(4-Nitrobenzyl)-2,4-dioxo-1,2-dihydroquinazolin-3(4H)-yl)-methyl)-N-(oxetan-3-ylmethyl)benzamide], the EC50 in [2] (setting [10]) amounted to 1300 ± 50 nM. Moreover, in series [6] (10 µM), the “increase in capacity to reduce viral titer over hit 2” value is listed as at least 2 log. Also, the log reduction at 10 µM in series [6] is above 6.2.

For the compound `CC(C)c1ccc(Cn2c(=O)n(Cc3ccc(C(=O)NCC4COC4)cc3)c(=O)c3ccccc32)cc1` [Compound 44, 4-((1-(4-Isopropylbenzyl)-2,4-dioxo-1,2-dihydroquinazolin-3(4H)-yl)methyl)-N-(oxetan-3-ylmethyl)benzamide], the EC50 in series [2] (setting [10]) stood at 400 ± 10 nM. Moreover, the log reduction at 10 µM in series [6] was 5.8.

Consider `CN(C)c1ccc(Cn2c(=O)n(Cc3ccc(C(=O)NCC4COC4)cc3)c(=O)c3ccccc32)cc1` [Compound 46, 4-((1-(4-(dimethylamino)benzyl)-2,4-dioxo-1,2-dihydroquinazolin-3(4H)-yl)methyl)-N-(oxetan-3-ylmethyl)-benzamide], for which the “solubility, PBS” value (kinetic solubility in 1× PBS, pH 7.4) was 11.2 µM (≈ 5.58 µg/mL). For the setting “kinetic solubility in CPE assay media (DMEM/F12, Pen/Strep/Glutamine, 2% heat inactivated FBS)”, the “solubility, media” value came to 18.5 µM (≈ 9.22 µg/mL). Also, in [2] (HEp-2 CC50 / RSV CPE EC50), the “selectivity index (CC50/EC50)” value was found to be 41.8. In addition, the half-maximal effective concentration (EC50) in [2] (read-out: RSV CPE potency ± standard deviation EC50, HEp-2 cells, hRSV strain Long, 10-point dose response) worked out at 1100 ± 200 nM. In series [7] (percent parent remaining after 48 h in 1:1 PBS and acetonitrile), the “aqueous stability, 1:1 PBS/ACN” value is reported as 100%. For the same compound, in series [7] (percent parent remaining after 48 h in PBS), the “aqueous stability, PBS” value stood at 90.2%. Further, in series [8] (at each of 3 pH levels), the “passive permeability in words” value was “Moderate to good”. The “Pe, PAMPA permeability” value amounted to 780 ×10⁻⁶ cm/s in [8] (donor pH 5.0, acceptor pH 7.4); 686 ×10⁻⁶ cm/s in [8] (donor pH 6.2, acceptor pH 7.4); 514 ×10⁻⁶ cm/s in series [8] (donor pH 7.4, acceptor pH 7.4). In addition, the CC50 in series [9] is above 50000 nM. Moreover, the “viral titer reduction at 10 µM” value in series [6] (compound at 10 µM) is above 6.2 log.

As for `CC(C)(C)c1ccc(Cn2c(=O)n(Cc3ccc(C(=O)NCC4COC4)cc3)c(=O)c3ccccc32)cc1` [Compound 47, 4-((1-(4-tert-Butylbenzyl)-2,4-dioxo-1,2-dihydroquinazolin-3(4H)-yl)methyl)-N-(oxetan-3-ylmethyl)benzamide], the EC50 in series [2] (setting [10]) came out at 1600 ± 80 nM. Further, in series [6], the log reduction at 10 µM is 3.4.

`CC(C)c1ccc(Cn2c(=O)n(Cc3ccc(C(=O)NCc4ccco4)cc3)c(=O)c3ccccc32)cc1` [Compound 48, N-(Furan-2-ylmethyl)-4-((1-(4-isopropylbenzyl)-2,4-dioxo-1,2-dihydroquinazolin-3(4H)-yl)methyl)benzamide]: the 50% effective concentration (EC50) in [2] (setting [10]) amounted to 1200 ± 100 nM. Moreover, the log reduction at 10 µM in series [6] is 2.8.

(Values after paper PMC4281105 (Journal of medicinal chemistry, 2014).)
